As a reminder, the IC50 is the midpoint of a concentration-inhibition curve.

The assay deals with T1, Chymase (Homo sapiens, UniProt P23946).
T1 sequence (P23946 22-247): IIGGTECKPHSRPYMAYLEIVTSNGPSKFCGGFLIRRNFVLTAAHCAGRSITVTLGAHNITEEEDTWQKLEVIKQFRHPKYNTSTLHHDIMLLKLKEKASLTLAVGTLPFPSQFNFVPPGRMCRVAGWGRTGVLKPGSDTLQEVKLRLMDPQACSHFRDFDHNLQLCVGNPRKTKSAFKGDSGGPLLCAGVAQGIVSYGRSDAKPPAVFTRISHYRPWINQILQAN
Nature of the assay: In vitro assay for inhibition of Chymase (rhodamine 110 peptide substrate, fluorescence). The following applies: 500 pM chymase, 100 nM substrate, 100 μM TCEP, 1% DMSO, 28° C., 1 hour. In kind it is biochemical. The procedure:
IN VITRO ASSAY FOR INHIBITION OF CHYMASE
Chymase assays were performed in a total volume of 15 μL in Corning black opaque 384-well microtiter plates with a non-binding surface (Corning, N.Y.). The assay buffer was comprised of 20 mM Tris HCl pH 8.0, 50 mM NaCl, 0.01% CHAPS. The test compounds were serially diluted 3-fold with neat DMSO in a 96-well polypropylene plate from a 10 mM DMSO stock to give the 10 point dose response curve. 3 μL of the resulting DMSO solution were transferred to a 384-well polypropylene plate in duplicate, and 37 μL of assay buffer was added. Chymase was added to the assay plate in 3 uL of assay buffer followed by 2 uL of the appropriate compound dilution using a PlateMate Plus (Matrix Technologies Corp., Hudson, N.H.). The reaction was initiated by the addition of 10 uL rhodamine 110, bis-(succinoyl-L-alanyl-L-alanyl-L-prolyl-L-phenylalanylamide) (American Peptides, Sunnyvale, Calif.) in assay buffer containing 150 μM tris(2-carboxyethyl)phosphine (TCEP, Pierce Chemical, Rockford, Ill.) using a Multidrop (Thermo Electron Corp., Waltham, Mass.). Final assay concentrations were 500 pM chymase, 100 nM substrate, 100 μM TCEP, and 1% DMSO. The plates were incubated at 28° C. and 80% humidity for 1 hour, at which time the fluorescence was read on a Viewlux 1430 Microplate Imager (Perkin Elmer Life Sciences, Boston, Mass.) with 485 nm excitation, 530 nm emission, and a fluorescein dichroic mirror. The percentage of control values were calculated relative to assay blanks containing complete reaction minus chymase and a 100% control containing assay buffer with 1% DMSO in place of compound. IC50 values were obtained by fitting the data using XLFit4 (IDBS Software).
The compound `CCC[C@@H](CC(=O)NS(=O)(=O)CC)n1c(=O)n(Cc2cn(C)c3cccc(C)c23)c2cccnc21` [Ethanesulfonic acid {(S)-3-[1-(1,4-dimethyl-1H-indol-3-ylmethyl)-2-oxo-1,2-dihydro-imidazo[4,5-b]pyridin-3-yl]-hexanoyl}-amide] had a 50% inhibitory concentration (IC50) of 7.48 nM. Compound `Cc1cc(C)c2c(Cn3c(=O)n([C@H](CC(=O)O)c4ccc(Cl)cc4)c4nc(C)ccc43)nsc2c1` [(R)-3-(4-Chloro-phenyl)-3-[1-(4,6-dimethyl-1,2-benzisothiazol-3-ylmethyl)-5-methyl-2-oxo-1,2-dihydro-imidazo[4,5-b]pyridin-3-yl]-propionic acid] showed a 50% inhibitory concentration (IC50) of 0.624 nM. Compared with the last compound, the IC50 is about 12-fold lower. The value for `Cc1cc(C)c2c(Cn3c(=O)n([C@H](CC(=O)O)c4ccc(F)cc4)c4nc(C#N)ccc43)cn(C)c2c1` [(R)-3-[5-Cyano-2-oxo-1-(1,4,6-trimethyl-1H-indol-3-ylmethyl)-1,2-dihydro-imidazo[4,5-b]pyridin-3-yl]-3-(4-fluoro-phenyl)-propionic acid] was 0.23 nM. To `CCC[C@@H](CC(=O)O)n1c(=O)n(Cc2cn(C)c3cccc(C)c23)c2cccnc21` [(S)-3-[1-(1,4-Dimethyl-1H-indol-3-ylmethyl)-2-oxo-1,2-dihydro-imidazo[4,5-b]pyridin-3-yl]-hexanoic acid] belongs 4.93 nM.

The record behind these values is patent publication US9062056B2, “Aza-benzimidazolone Chymase inhibitors” (Boehringer Ingelheim International GmbH, priority 2008, dated 2015).
